Some results are limits rather than exact numbers.

In general, melting point refers to the temperature of the solid-liquid transition.

Compound `Cc1cc(C)cc(N2CCN(Cc3ncn(C(c4ccccc4)(c4ccccc4)c4ccccc4)c3C)C2=O)c1` returned a melting point of 199 to 202 °C. The figure for `CN(CCOc1ccc([N+](=O)[O-])cc1F)c1ccccn1` is 95 to 96 °C; for `COc1ccc(N=C(NC(=O)Nc2ccc(-c3ncn(-c4ccc(C(F)(F)F)cc4)n3)cc2)SCOC(=O)C(C)C)c(C)c1` it is 160 to 164 °C; for `O=C(Cc1cccc(Br)c1)Nc1cccc(C(=O)NCCO)c1` it is 202 °C. `CCCn1c(=O)c2[nH]c(C(CO)Cc3ccccc3)nc2n(CCC)c1=O` (centres undefined) showed a melting point of 145 to 146 °C. The figure for `CC(C)(C)OC(=O)N1C2CCC1CN(Cc1ccccc1)C2` is 58 to 60 °C. The figure for `COc1ccc(C(=O)NC2N=C(c3ccccc3F)c3ccccc3NC2=O)cc1` (racemic) is 231 to 233 °C; for `N#Cc1ccc2c(c1)NC(=O)C2c1ncnc2c1cnn2C1CCCCC1` (centres undefined) it is > 300 °C. The result for `O=C(CC1c2ccccc2C(=O)N1C1CCCCC1)N1CCCCC1` (centres undefined) reads 158 to 160 °C. With `COc1ccc(CC(=O)Cc2ccc(OC)cc2)cc1`, the melting point is 75 to 76 °C.

With `O=CNCc1cccc(-c2ccc(Br)cc2)n1`, the melting point fell in the range of 115 to 119 °C.

Regarding `COC(C)(C)C#Cc1ncn2c1CN(C)C(=O)c1cc(F)ccc1-2`, the melting point lay in the range of 149 to 150 °C.

The compound `COc1cccc(-c2ccc3c(c2)CC[C@H]2N(C)C(=O)CC[C@]32C)c1` had a melting point of 140 °C.

In the case of `Cc1nc(Nc2cccc(C(F)(F)F)c2)c2ccccc2c1Cc1ccc(Cl)nc1`, the melting point is 137 °C.

Consider `Cc1ccc(S(=O)(=O)OCC2(F)CCN(C(=O)c3ccc(F)c(Cl)c3)CC2)cc1`, for which the melting point came to 92 °C. `CCOC(=O)c1ccc(-c2ccc(-c3ccc(O)cc3)c(-c3ccc4c(c3)C(C)(C)CCC4(C)C)c2)cc1` had a melting point of 177 to 179 °C. The result for `CCC(O)Cn1c(Cl)nc2ccccc21` (centres undefined) reads 126 °C; that for `COc1ccc2c(c1)C(=O)c1c-2c(N2CCN(CC3CO3)CC2)nc2ccccc12` (centres undefined), 138 to 139 °C. The result for `O=C(NCC1CCCC1)c1ccc2[nH]ccc2c1` reads 110 to 112 °C; that for `COc1ccc(N2CCN(CC[C@H]3CC[C@H](NC(=O)N(C)C)CC3)CC2)c(Cl)c1Cl`, 196 to 198 °C. With `O=C(CCC#Cc1ccccn1)Nc1ccc(Cl)cc1`, the melting point lay in the range of 110 to 111 °C. The figure for `COCC(=O)Nc1ccc2ncnc(Nc3cc(Cl)c(Cl)cc3F)c2c1` is 204 to 206 °C; for `CC(=O)OC[C@H]1O[C@@H](Cn2ccc(=S)[nH]c2=O)[C@@H](OC(C)=O)[C@@H]1OC(C)=O` it is 100 to 105 °C.

Take `C=CCOc1ccc2ccc(=O)oc2c1`: the melting point is 165 °C. In turn, `COc1ccc(-c2cn([C@H]3CN4CCC3CC4)nn2)cc1` came in with a melting point of 122 °C. In turn, `Nc1ccc2c(c1)OCC(CN1CC=C(c3c[nH]c4ccc(F)cc34)CC1)O2` (centres undefined) yielded a melting point of 172 to 174 °C. The result for `Brc1ccc(N2CCN(c3ccncc3)CC2)nc1` reads 176 to 180 °C; that for `COc1ccc(C(=O)Nc2ccccc2)cc1NCc1ccc(C(C)(C)C)cc1`, 195 to 197 °C; that for `CCc1oc(C)cc(=O)c1O`, 157 to 159 °C.

The compound `O=c1[nH]c2ccccc2c2ccnn12` gave a melting point of 253 to 254 °C. The figure for `CCn1ncnc1COc1nc2c(-c3ccccc3)nnc(C)n2c1C1CCCC1` is 94 to 96 °C; for `CC(C)(C)OC(=O)Nc1ccc(-c2ccc(OCc3ccccc3)nc2)cc1[N+](=O)[O-]` it is 119 to 122 °C. In the case of `CC(=O)OC1CSC(Sc2ccc(C(=O)C(F)(F)F)cc2)C(OC(C)=O)C1OC(C)=O` (centres undefined), the melting point fell in the range of 143 to 148 °C.

Compound `NC(=O)[C@H](NCc1ccccc1)[C@@H]1CSC(=O)N1Cc1ccccc1` returned a melting point of 194 to 195 °C.

`CC1=C(C(=O)OCCN(C)C)C(c2cccc([N+](=O)[O-])c2)C(C(=O)OCC2CC2)=C(C)N1` (centres undefined) returned a melting point of 125 to 126 °C.

Regarding `CCC(CCCNC(=O)Nc1cccnc1)NC(=O)Nc1cccnc1` (centres undefined), the melting point fell in the range of 218 to 219 °C. The figure for `CCCc1nc(C(=O)CC)c(C)[nH]1` is 63 to 67 °C. The result for `COc1ccn2nc(-c3ccccc3F)c(-c3ccc(=O)n(C(C)C)n3)c2c1` reads 174 to 175 °C. The figure for `CCCNc1nc(C)nc2c1nnn2-c1ccc(C(C)C)cc1Br` is 156 to 157 °C; for `CC1(C)CCC(Cc2ccc(Cl)cc2)C1(O)Cn1ncnc1S` (centres undefined) it is 179 to 180 °C; for `CN1C(=O)CCC2(C)c3ccc(Sc4cncc5ccccc45)cc3CCC12` (centres undefined) it is 161 to 163 °C. With `O=c1[nH]c(C2CC2)nc2c1cnn2-c1ncc(C(F)(F)F)cc1Cl`, the melting point was 239 °C. Take `CCCC(c1ccc(C(=O)Nc2ccccc2)cc1OCc1ccc(Br)cc1)n1ccnc1` (centres undefined): the melting point amounted to 168 °C. Turning to `O=C(O)COc1ccc(C(=C2CCCCCC2)c2ccc(O)cc2)cc1`, the melting point was in the range of 170 to 171 °C. The figure for `CC(C(=O)NCC(=O)O)C(SC(=O)c1ccccc1)SC(=O)c1ccccc1` (centres undefined) is 113 to 114 °C; for `O=C(O)CN1C(=O)C(=CC2CCCCC2)SC1=S` it is 191 to 193 °C.

With `Cn1cc(C(N)=O)c(Cl)n1`, the melting point lay within 164 to 166 °C. The result for `CN1CCC2(CC1)SC(C(C(=O)OC(C)(C)C)N1C(=O)c3ccccc3C1=O)NC2C(=O)OCc1ccccc1` (centres undefined) reads 173 to 175 °C. The figure for `CCN1C(=O)OCC1Cc1ccncc1` (centres undefined) is 180 to 182 °C; for `Cc1nc(N2CCN(Cc3cccc(F)c3)C2=O)sc1C(=O)NCc1ccccc1` it is 155 to 156 °C; for `Cc1cc(S(=O)(=O)c2ccc(O)cc2)ccc1C1CCN(C)C1` (centres undefined) it is 186 to 188 °C.

Compound `Cc1c(C)c(C=O)c2ncccc2c1C` came in with a melting point of 162 °C.

`CCOC(=O)C1=CC(OCC)(C(C)C)N(c2ccc(Cl)cc2Cl)N1` (centres undefined): the melting point was in the range of 105 to 110 °C.

Compound `CC(C)(C)C#CC(O)(Cn1cncn1)C(C)(C)C` (centres undefined) showed a melting point of 114 to 118 °C. The result for `O=C1Nc2cc(F)ccc2C1c1ncnc2nn(C3CCCC3)cc12` (centres undefined) reads 258 to 263 °C. The figure for `CN1C(=O)CC[C@]2(C)c3ccc(Sc4nc5cccc(Cl)c5s4)cc3CC[C@@H]12` is 90 to 91 °C; for `Cc1cc(C)cc(Cc2c(C(C)C)c(=O)[nH]c(=O)n2C/C=C/c2ccccc2)c1` it is 180 to 181 °C; for `CCCCCCCCC#Cc1ccc(C(=O)O)cc1` it is 103 °C. `CCOC(=O)C1CN(CC)c2nc(OC)ncc2C1=O` (centres undefined) showed a melting point of 118 °C. The result for `CC(C)(O)Cc1c2c(nn1CCO)c(N)nc1ccccc12` reads 196 to 198 °C; that for `COc1ccc(Cc2ccc3[nH]c(=S)[nH]c3c2)cc1OC`, 248 to 250 °C. The result for `CN1C(=O)C(C(=O)Nc2nccs2)Sc2ccccc21` (centres undefined) reads 234 to 235 °C; that for `Cc1csc2nc(-c3ccc(C(=O)O)cc3)nc(NCc3ccccc3)c12`, 270 °C; that for `O=C1NCCc2c(-c3cccs3)[nH]c3cccc1c23`, 220 to 222 °C.

`CC(C)(C)OC(=O)CCc1cc(S(C)(=O)=O)cc(-c2nc(=O)c3ccc(Cl)cc3s2)n1` yielded a melting point of 184 °C. With `Cc1c(CC(=O)O)c2c(F)c(O)ccc2n1C(=O)c1ccc(Cl)cc1`, the melting point fell in the range of 187 to 189 °C. With `Nc1c(C2=CCCCC2)c(-c2ccccc2)nn1-c1ccccc1`, the melting point was in the range of 115 to 117 °C. In turn, `O=C(N[C@H]1C[C@H](C(=O)O)Nc2cc(Cl)cc(Cl)c21)OCc1ccccc1` (relative stereo) returned a melting point of 169 °C. The figure for `COC(=O)C(C#N)c1ncc(Cl)cc1Cl` (centres undefined) is 109 to 110 °C; for `CCOC(=O)C(NC(=O)OCc1ccccc1)C(=O)OCC` it is 36.5 to 37 °C; for `CC1Nc2ccc(-c3ccc(C#N)[nH]3)cc2C(C)(C)O1` (centres undefined) it is 201 to 202 °C. `CC1=NC=CC(C)(c2c(F)cc3c(=O)c(C(=O)O)cn4c3c2OCC4C)C1` (centres undefined): the melting point was in the range of 308 to 312 °C.

In turn, `Cc1cc(-c2cc3cc(OCCNC[C@H](O)COc4ccccc4Cl)ccc3o2)no1` returned a melting point of 102 to 106 °C.

As for `C#Cc1ccc2c(c1)C(C)(C)CCS2=O` (centres undefined), the melting point was in the range of 105 to 107 °C. The result for `CN(C)c1ccc(N=Nc2ccccc2C(=O)NCCNC(=O)CI)cc1` reads 140 to 142 °C; that for `C[C@]1(COc2ccc(N3CCN(C(=O)OCc4ccc(Cl)cc4)CC3)cc2)Cn2cc([N+](=O)[O-])nc2O1`, 184 to 188 °C; that for `Cc1nc(-c2[nH]c3ccccc3c2C#N)no1`, 209 to 212 °C. With `O=Cc1cc2c3ccccc3c3ccccc3c2o1`, the melting point fell in the range of 84 to 85 °C. As for `COCCN1CCc2ccc(Nc3ncc(Cl)c(Nc4ccc(N5CCOCC5)cc4OCCC#N)n3)cc2CC1`, the melting point was in the range of 91 to 96 °C.

`CCOC(=O)c1cc(O)cc(C(=O)OCC)c1` registered a melting point of 106 °C.

In turn, `COc1cc(C)nc2c(OCc3c(Cl)ccc(N(C)C(=O)CN4C(=O)c5ccccc5C4=O)c3Cl)cccc12` had a melting point of 209 to 210 °C. The figure for `CN1CCC(c2c[nH]c(-c3ccc(F)cc3)c2-c2ccncc2)=CC1Cc1ccccc1` (centres undefined) is 198 to 200 °C; for `COc1ccc(-c2cc3cc(F)c(F)cc3[nH]2)cc1NS(=O)(=O)c1cc(Cl)cc(Cl)c1` it is 217 to 219 °C. The result for `Cc1ccc(N(c2ccccc2)c2ccc3c4c(cccc24)CC3)cc1` reads 147 to 148 °C; that for `CNC(=O)c1[nH]c2ccccc2c1Sc1ccccc1`, 201 to 204 °C. The result for `CNC(=O)C1Cc2c(nc(C)n2C)C2=C1C(=O)CC1(Cc3ccccc3C1)N2` (centres undefined) reads 93 to 94 °C; that for `COc1ccc(/C=C/c2ccncc2)cc1OCCCCCc1ccccc1`, 98 to 100 °C. `CN1CCN(c2ccc(-c3cnc4c(c3)N(S(=O)(=O)c3ccccc3Cl)CCN4)cn2)CC1` returned a melting point of 164 to 165 °C. The result for `C=C1CCN(CC)c2c(CSc3nc4ccccc4[nH]3)cccc21` reads 148 to 149 °C.

The values are drawn from a melting point compilation (Tetko et al.; mined from patent text by program, amines drawn as free bases though some values may be those of a salt).
